SMILES strings stand for the structures. Values after ≈ are worked out from the molar mass of the structure shown. Active and inactive are the calls of the source. The rule behind the calls is not given here.

Experiment [1] has as its system Staphylococcus epidermidis.
Experiment [2] has as its system Staphylococcus epidermidis. The source holds these as a separate data set.
Experiment [3] has as its system Cutibacterium acnes. As to the kind of experiment: Antibacterial activity against Propionibacterium acnes assessed as percent susceptible isolates by CLSI M11-A7 method. The class given is functional.
For experiment [4], the system named is Bacteroides fragilis. As to the kind of experiment: Antibacterial activity against Bacteroides fragilis by CLSI M11-A7 method. In kind it is functional.
For experiment [5], the system named is Cutibacterium acnes. As to the kind of experiment: Antibacterial activity against Propionibacterium acnes by CLSI M11-A7 method. In kind it is functional.
Experiment [6] relates to Peptostreptococcus sp. As to the kind of experiment: Antibacterial activity against Peptostreptococcus sp. by CLSI M11-A7 method. The class given is functional.
Experiment [7] has as its system Peptostreptococcus sp. As to the kind of experiment: Antibacterial activity against Peptostreptococcus sp. assessed as percent susceptible isolates by CLSI M11-A7 method. In kind it is functional.
Experiment [8] has as its system Fusobacterium sp. As to the kind of experiment: Antibacterial activity against Fusobacterium sp. assessed as percent susceptible isolates by CLSI M11-A7 method. The class given is functional.
The test system of experiment [9] is Prevotella sp. As to the kind of experiment: Antibacterial activity against Prevotella sp. by CLSI M11-A7 method. In kind it is functional.
For the next experiment, the system named is Clostridium perfringens. As to the kind of experiment: Antibacterial activity against Clostridium perfringens by CLSI M11-A7 method. The class given is functional.
In experiment [10] the test system is Fusobacterium sp. As to the kind of experiment: Antibacterial activity against Fusobacterium sp. by CLSI M11-A7 method. The class given is functional.
In experiment [11] the test system is Bacteroides fragilis. As to the kind of experiment: Antibacterial activity against Bacteroides fragilis assessed as percent susceptible isolates by CLSI M11-A7 method. In kind it is functional.
Experiment [12] has as its system Prevotella sp. As to the kind of experiment: Antibacterial activity against Prevotella sp. assessed as percent susceptible isolates by CLSI M11-A7 method. In kind it is functional.

By MIC90 is commonly meant the lowest concentration that inhibits either 90% of growth or 90% of the strains tested, depending on the study. On to `COc1c(N2C[C@@H]3CCCN[C@@H]3C2)c(F)cc2c(=O)c(C(=O)O)cn(C3CC3)c12`, for which the MIC90 result in experiment [1] and in experiment [2] was “inactive” throughout.

One may read the MIC50 as an inhibitory concentration at the 50% level, which refers to growth in some studies and to a panel of isolates in others. A high value points to lower susceptibility. As usually defined, the MIC is the least concentration at which growth counts as inhibited. Low readings indicate inhibition by little substance, high ones a need for much substance. Take `CCC[C@@H]1C[C@@H](C(=O)N[C@@H]([C@H]2O[C@H](SC)[C@H](O)[C@@H](O)[C@H]2O)[C@H](C)Cl)N(C)C1` [CLINDAMYCIN]: the Activity was determined as 100% in the experiment with Cutibacterium acnes [3]; 88.5% in the experiment on Peptostreptococcus sp. [7]; 95.2% in the experiment with Fusobacterium sp. [8]; 65% in the experiment on Bacteroides fragilis [11]; 85% in the experiment on Prevotella sp. [12]. Besides, the MIC50 against Bacteroides fragilis [4] is 2 µg/mL (≈ 4.71 µM); in the experiment with Cutibacterium acnes [5] it was 0.06 µg/mL (≈ 0.141 µM); with Peptostreptococcus sp. [6] it was 0.25 µg/mL (≈ 0.588 µM); in the experiment on Prevotella sp. [9], ≤ 0.03 µg/mL; against Clostridium perfringens, 2 µg/mL (≈ 4.71 µM); in the experiment with Fusobacterium sp. [10], 0.06 µg/mL (≈ 0.141 µM). Besides, the MIC90 against Bacteroides fragilis [4] is > 8 µg/mL; against Cutibacterium acnes [5] it was 0.12 µg/mL (≈ 0.282 µM); against Peptostreptococcus sp. [6] it was > 8 µg/mL; in the experiment on Prevotella sp. [9] it was > 8 µg/mL; in the experiment with Clostridium perfringens it was 4 µg/mL (≈ 9.41 µM); with Fusobacterium sp. [10] it was 2 µg/mL (≈ 4.71 µM). Moreover, the MIC with Prevotella sp. [9] is ≤ 0.03 µg/mL; in the experiment with Fusobacterium sp. [10] it was 0.06 µg/mL (≈ 0.141 µM).

`Cc1ncc([N+](=O)[O-])n1CCO` [METRONIDAZOLE]: the Activity stood at 0% in the experiment on Cutibacterium acnes [3]; 98.1% with Peptostreptococcus sp. [7]; 100% with Fusobacterium sp. [8]; 100% in the experiment with Bacteroides fragilis [11]; 100% with Prevotella sp. [12]. Also, the MIC in the experiment on Bacteroides fragilis [4] is 2 µg/mL (≈ 11.7 µM); in the experiment with Cutibacterium acnes [5], > 16 µg/mL. In addition, the MIC50 was 2 µg/mL (≈ 11.7 µM) in the experiment on Bacteroides fragilis [4]; > 16 µg/mL in the experiment with Cutibacterium acnes [5]; 0.5 µg/mL (≈ 2.92 µM) in the experiment with Peptostreptococcus sp. [6]; 4 µg/mL (≈ 23.4 µM) against Prevotella sp. [9]; 2 µg/mL (≈ 11.7 µM) in the experiment with Clostridium perfringens; 0.25 µg/mL (≈ 1.46 µM) in the experiment with Fusobacterium sp. [10]. For the same compound, the MIC90 with Bacteroides fragilis [4] was 2 µg/mL (≈ 11.7 µM); against Cutibacterium acnes [5] it was > 16 µg/mL; against Peptostreptococcus sp. [6], 1 µg/mL (≈ 5.84 µM); with Prevotella sp. [9], 4 µg/mL (≈ 23.4 µM); with Clostridium perfringens, 4 µg/mL (≈ 23.4 µM); in the experiment with Fusobacterium sp. [10], 1 µg/mL (≈ 5.84 µM).

Source of the values: ChEMBL document CHEMBL1649565, “Besifloxacin, a novel fluoroquinolone, has broad-spectrum in vitro activity against aerobic and anaerobic bacteria” (Antimicrob Agents Chemother, 2009).
